Test results: the NIST ThermoML archive (doi:10.1021/je0301794)

Columns and labels:
[1] = xn = mol fraction of the nth substance listed; settings: 101.3 kPa, Liquid
[2] = excess molar enthalpy (molar enthalpy of mixing); xn = mol fraction of the nth substance listed; settings: 318.15 K, 101.3 kPa, Liquid

COC(=O)OC [dimethyl carbonate] + CCCCCC
[1]
Settings | mass density [kg/m3]
293.15 K, x1 = 0.0722 | 677.3
293.15 K, x1 = 0.1448 | 696.6
293.15 K, x1 = 0.2286 | 720.8
293.15 K, x1 = 0.3026 | 744
293.15 K, x1 = 0.4102 | 780.8
293.15 K, x1 = 0.5062 | 817
293.15 K, x1 = 0.6026 | 857.1
293.15 K, x1 = 0.7052 | 904
293.15 K, x1 = 0.7974 | 950.5
293.15 K, x1 = 0.901 | 1008.3
293.15 K, x1 = 0.9506 | 1038.5
293.15 K, x1 = 1 | 1070
298.15 K, x1 = 0.082 | 674.9
298.15 K, x1 = 0.1269 | 686.7
298.15 K, x1 = 0.2131 | 710.9
298.15 K, x1 = 0.3197 | 744.1
298.15 K, x1 = 0.3787 | 764
298.15 K, x1 = 0.4712 | 797.6
298.15 K, x1 = 0.5121 | 813.4
298.15 K, x1 = 0.6067 | 852.6
298.15 K, x1 = 0.6987 | 894.5
298.15 K, x1 = 0.842 | 967.9
298.15 K, x1 = 0.9248 | 1015.9
298.15 K, x1 = 0.9615 | 1038.7
298.15 K, x1 = 1 | 1063.5
303.15 K, x1 = 0.0468 | 661.4
303.15 K, x1 = 0.0991 | 674.5
303.15 K, x1 = 0.1951 | 700.4
303.15 K, x1 = 0.295 | 730.4
303.15 K, x1 = 0.3832 | 759.5
303.15 K, x1 = 0.4865 | 797.1
303.15 K, x1 = 0.5899 | 838.7
303.15 K, x1 = 0.696 | 886.3
303.15 K, x1 = 0.7947 | 935.5
303.15 K, x1 = 0.8939 | 990.5
303.15 K, x1 = 0.9436 | 1020.3
303.15 K, x1 = 1 | 1056.5
313.15 K, x1 = 0.0495 | 652.7
313.15 K, x1 = 0.1 | 665.2
313.15 K, x1 = 0.2092 | 694.5
313.15 K, x1 = 0.3093 | 724.6
313.15 K, x1 = 0.4043 | 756.1
313.15 K, x1 = 0.4941 | 788.8
313.15 K, x1 = 0.6052 | 833.6
313.15 K, x1 = 0.7063 | 879.2
313.15 K, x1 = 0.8046 | 928.6
313.15 K, x1 = 0.9014 | 982.5
313.15 K, x1 = 0.9497 | 1011.6
313.15 K, x1 = 1 | 1043.4
318.15 K, x1 = 0.0773 | 654.9
318.15 K, x1 = 0.1163 | 664.6
318.15 K, x1 = 0.1621 | 676.6
318.15 K, x1 = 0.2689 | 706.8
318.15 K, x1 = 0.3288 | 725.3
318.15 K, x1 = 0.4097 | 752.4
318.15 K, x1 = 0.4753 | 776
318.15 K, x1 = 0.5256 | 795.2
318.15 K, x1 = 0.5452 | 803.1
318.15 K, x1 = 0.5879 | 820.6
318.15 K, x1 = 0.6449 | 845.2
318.15 K, x1 = 0.6976 | 869.3
318.15 K, x1 = 0.7615 | 900.4
318.15 K, x1 = 0.8039 | 922.2
318.15 K, x1 = 0.8422 | 942.9
318.15 K, x1 = 0.8808 | 964.3
318.15 K, x1 = 0.9311 | 993.8
318.15 K, x1 = 0.9657 | 1015.1
318.15 K, x1 = 1 | 1036.9

[2]
Settings | excess molar enthalpy [kcal/mol]
x1 = 0.088 | 0.171
x1 = 0.1762 | 0.292
x1 = 0.2418 | 0.369
x1 = 0.3259 | 0.432
x1 = 0.4027 | 0.472
x1 = 0.4703 | 0.49
x1 = 0.5162 | 0.495
x1 = 0.5554 | 0.492
x1 = 0.6261 | 0.477
x1 = 0.6776 | 0.455
x1 = 0.7263 | 0.421
x1 = 0.7728 | 0.381
x1 = 0.8189 | 0.323
x1 = 0.866 | 0.262
x1 = 0.9005 | 0.204
x1 = 0.9393 | 0.13
x1 = 0.9822 | 0.0471
x1 = 1 | 0

COC(=O)OC [dimethyl carbonate] + CCCCCCCC
[1]
Settings | mass density [kg/m3]
293.15 K, x1 = 0.0513 | 711.1
293.15 K, x1 = 0.0997 | 719.8
293.15 K, x1 = 0.2027 | 740.5
293.15 K, x1 = 0.3063 | 764.5
293.15 K, x1 = 0.3994 | 789.1
293.15 K, x1 = 0.5123 | 823.6
293.15 K, x1 = 0.6078 | 857.4
293.15 K, x1 = 0.7137 | 901.2
293.15 K, x1 = 0.8055 | 945.8
293.15 K, x1 = 0.9061 | 1004
293.15 K, x1 = 0.9516 | 1034.3
293.15 K, x1 = 1 | 1070
298.15 K, x1 = 0.0558 | 707.8
298.15 K, x1 = 0.096 | 715
298.15 K, x1 = 0.1488 | 725.1
298.15 K, x1 = 0.2289 | 741.8
298.15 K, x1 = 0.2947 | 756.9
298.15 K, x1 = 0.4216 | 790.4
298.15 K, x1 = 0.4883 | 810.6
298.15 K, x1 = 0.4968 | 813.3
298.15 K, x1 = 0.5931 | 846.6
298.15 K, x1 = 0.6867 | 884.1
298.15 K, x1 = 0.7879 | 931.6
298.15 K, x1 = 0.8873 | 987.1
298.15 K, x1 = 0.9502 | 1027.7
298.15 K, x1 = 1 | 1063.5
303.15 K, x1 = 0.0519 | 702.9
303.15 K, x1 = 0.0827 | 708.3
303.15 K, x1 = 0.1947 | 729.9
303.15 K, x1 = 0.2829 | 749.4
303.15 K, x1 = 0.3948 | 778.1
303.15 K, x1 = 0.4942 | 807.5
303.15 K, x1 = 0.5964 | 842.4
303.15 K, x1 = 0.6983 | 883.1
303.15 K, x1 = 0.7886 | 925.2
303.15 K, x1 = 0.8946 | 984.3
303.15 K, x1 = 0.9545 | 1023.4
303.15 K, x1 = 1 | 1056.5
313.15 K, x1 = 0.0512 | 694.5
313.15 K, x1 = 0.1005 | 703
313.15 K, x1 = 0.186 | 719.2
313.15 K, x1 = 0.301 | 744.5
313.15 K, x1 = 0.4072 | 771.6
313.15 K, x1 = 0.5002 | 799.1
313.15 K, x1 = 0.6042 | 834.5
313.15 K, x1 = 0.709 | 876.3
313.15 K, x1 = 0.7993 | 918.8
313.15 K, x1 = 0.8465 | 944
313.15 K, x1 = 0.9524 | 1009.1
313.15 K, x1 = 1 | 1043.4
318.15 K, x1 = 0.0823 | 695.4
318.15 K, x1 = 0.1827 | 714.2
318.15 K, x1 = 0.2965 | 738.7
318.15 K, x1 = 0.3626 | 754.9
318.15 K, x1 = 0.436 | 774.6
318.15 K, x1 = 0.5156 | 798.6
318.15 K, x1 = 0.5606 | 813.4
318.15 K, x1 = 0.6305 | 838.7
318.15 K, x1 = 0.6756 | 856.4
318.15 K, x1 = 0.7428 | 885.6
318.15 K, x1 = 0.7845 | 905.6
318.15 K, x1 = 0.8233 | 925.5
318.15 K, x1 = 0.8711 | 951.7
318.15 K, x1 = 0.9071 | 973.5
318.15 K, x1 = 0.964 | 1010.8
318.15 K, x1 = 0.9761 | 1019.5
318.15 K, x1 = 1 | 1036.9

[2]
Settings | excess molar enthalpy [kcal/mol]
x1 = 0.0844 | 0.164
x1 = 0.1746 | 0.299
x1 = 0.2622 | 0.403
x1 = 0.3463 | 0.475
x1 = 0.4232 | 0.514
x1 = 0.4922 | 0.528
x1 = 0.5544 | 0.528
x1 = 0.6104 | 0.516
x1 = 0.6455 | 0.504
x1 = 0.683 | 0.488
x1 = 0.7224 | 0.461
x1 = 0.7671 | 0.419
x1 = 0.8115 | 0.368
x1 = 0.8562 | 0.307
x1 = 0.8987 | 0.238
x1 = 0.9358 | 0.167
x1 = 0.9713 | 0.0834
x1 = 1 | 0
